EC50 data for 14 compounds are collected here from US20250223281A1, “ANTIDIABETIC COMPOUNDS AND COMPOSITIONS” (REZUBIO PHARMACEUTICALS CO., LTD, priority 2022, published 2025).

The target of the experiment is T1, GPR40 (Homo sapiens, UniProt O14842).
T1 construct: expressed in transfected cells; host or cells: HEK293 cells stably expressing GPR40 (Hygromycin selection)
As to the kind of experiment: IP1 accumulation assay in HEK293 cells stably expressing GPR40. It counts as cell-based. Put shortly:
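HEK293 cells stably expressing human GPR40 were incubated with compounds (10-point, 3-fold dilution series) for 2 h at 37 °C, then IP1 was detected by HTRF (665/615 nm ratio). Effect was normalised to DMSO blank and AMG-1638 as 100%, and EC50 was derived from dose curves.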

Where [1] appears, read: IP1 accumulation, HEK293 cells stably expressing GPR40, 2 hours at 37° C., % effect relative to AMG-1638, table of Biological Example 1.
The mark [2] stands for this setting: Tables A-1a to A-7b (structure-property relationship), obtained by methods of Biological Example 1.
The mark [3] stands for this setting: Table A-8 (additional examples), obtained by methods of Biological Example 1.

T1 sequence (O14842 whole entry): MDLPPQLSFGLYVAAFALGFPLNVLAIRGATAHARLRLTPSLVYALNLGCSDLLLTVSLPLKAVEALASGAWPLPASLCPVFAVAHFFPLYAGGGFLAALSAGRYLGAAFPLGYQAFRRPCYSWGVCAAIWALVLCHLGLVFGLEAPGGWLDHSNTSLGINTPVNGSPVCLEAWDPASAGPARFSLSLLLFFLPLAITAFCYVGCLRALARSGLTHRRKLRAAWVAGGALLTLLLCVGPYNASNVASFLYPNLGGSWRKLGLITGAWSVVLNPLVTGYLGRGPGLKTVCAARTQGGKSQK

On to `COc1ccc(F)c(-c2ccc(COc3cccc([C@@H](CC(=O)O)C4CC4)c3)cc2CC(C)(C)Cn2cc(CCCCCCCCCCCCCCC(=O)NCCC[N+](C)(CC(=O)O)CC(=O)O)nn2)c1` [Example 109], for which, under setting [1], the EC50 was above 1000 nM.

With `COc1ccc(C(=O)N(CC(C)(C)CCn2cc(CCCCCCCCC(=O)NCCN(CCC(=O)NCCN)CCC(=O)NCCN)nn2)c2cccc(C)n2)c(N2CCC(COc3cc([C@@H](CC(=O)O)C4CC4)ccn3)CC2)c1` [Example 110], the EC50 was 618 nM under setting [1] and 618 nM under setting [2].

On to `COc1ccc(C(=O)N(CC(C)(C)CCn2cc(CCCCCCCCC(=O)NCC[N+](C)(CCC(=O)NCCN)CCC(=O)NCCN)nn2)c2cccc(C)n2)c(N2CCC(COc3cc([C@@H](CC(=O)O)C4CC4)ccn3)CC2)c1` [Example 111], for which the EC50 reads like this: under setting [1], 307 nM; under setting [2], 307 nM.

As for `COc1ccc(C(=O)N(CC(C)(C)CCn2cc(CCCCCCCCCCC(=O)NCCN(CCC(=O)NCCN)CCC(=O)NCCN)nn2)c2cccc(C)n2)c(N2CCC(COc3cc([C@@H](CC(=O)O)C4CC4)ccn3)CC2)c1` [Example 112], the EC50 reads like this: under setting [1], 14.9 nM; under setting [2], 14.9 nM.

As to `COc1ccc(C(=O)N(CC(C)(C)CCn2cc(CCCCCCCCCCC(=O)NCC[N+](C)(CCC(=O)NCCN)CCC(=O)NCCN)nn2)c2cccc(C)n2)c(N2CCC(COc3cc([C@@H](CC(=O)O)C4CC4)ccn3)CC2)c1` [Example 113], the concentration for a half-maximal effect (EC50) runs as follows: under setting [1], 6.27 nM; under setting [2], 6.27 nM.

Consider `COc1ccc(C(=O)N(CC(C)(C)CCn2cc(CCCCCCCCCCCCC(=O)NCCN(CCC(=O)NCCN)CCC(=O)NCCN)nn2)c2cccc(C)n2)c(N2CCC(COc3cc([C@@H](CC(=O)O)C4CC4)ccn3)CC2)c1` [Example 114], for which the concentration for a half-maximal effect (EC50) was determined as 0.42 nM under setting [1], 0.42 nM under setting [3] and 0.42 nM under setting [2].

Consider `COc1ccc(C(=O)N(CC(C)(C)CCn2cc(CCCCCCCCCCCCC(=O)NCC[N+](C)(CCC(=O)NCCN)CCC(=O)NCCN)nn2)c2cccc(C)n2)c(N2CCC(COc3cc([C@@H](CC(=O)O)C4CC4)ccn3)CC2)c1` [Example 115], for which the EC50 is, setting by setting: under setting [1], 0.51 nM; under setting [3], 0.51 nM; under setting [2], 0.51 nM.

In the case of `COc1ccc(C(=O)N(CC(C)(C)CCn2cc(CCCCCCCCCCCCCC(=O)NCCN(CCC(=O)NCCN)CCC(=O)NCCN)nn2)c2cccc(C)n2)c(N2CCC(COc3cc([C@@H](CC(=O)O)C4CC4)ccn3)CC2)c1` [Example 116], the EC50 is, setting by setting: under setting [1], 0.21 nM; under setting [2], 0.21 nM.

Consider `COc1ccc(C(=O)N(CC(C)(C)CCn2cc(CCCCCCCCCCCCCC(=O)NCC[N+](C)(CCC(=O)NCCN)CCC(=O)NCCN)nn2)c2cccc(C)n2)c(N2CCC(COc3cc([C@@H](CC(=O)O)C4CC4)ccn3)CC2)c1` [Example 117], for which the EC50 was determined as 0.29 nM under setting [1] and 0.29 nM under setting [2].

Consider `COc1ccc(C(=O)N(CC(C)(C)CCn2cc(CCCCCCCCCCCCCCC(=O)NCCN(CCC(=O)NCCN)CCC(=O)NCCN)nn2)c2cccc(C)n2)c(N2CCC(COc3cc([C@@H](CC(=O)O)C4CC4)ccn3)CC2)c1` [Example 118], for which the EC50 by setting is: under setting [1], 0.33 nM; under setting [2], 0.33 nM.

For the compound `COc1ccc(C(=O)N(CC(C)(C)CCn2cc(CCCCCCCCCCCCCCC(=O)NCC[N+](C)(CCC(=O)NCCN)CCC(=O)NCCN)nn2)c2cccc(C)n2)c(N2CCC(COc3cc([C@@H](CC(=O)O)C4CC4)ccn3)CC2)c1` [Example 119], the EC50 is 0.1 nM under setting [1] and 0.1 nM under setting [2].

Regarding `COc1ccc(F)c(-c2ccc(COc3cccc([C@@H](CC(=O)O)C4CC4)c3)cc2CC(C)(C)Cn2cc(CCCCCCCCCCCC(=O)NCCCN(CC(=O)O)CC(=O)O)nn2)c1` [Example 120], it took 1290 nM to reach a half-maximal effect under setting [1] (EC50).

Under setting [1], `COc1ccc(F)c(-c2ccc(COc3cccc([C@@H](CC(=O)O)C4CC4)c3)cc2CC(C)(C)Cn2cc(CCCCCCCCCCCCCCCC(=O)NCCCN(CC(=O)O)CC(=O)O)nn2)c1` [Example 121] came in with a 50% effective concentration (EC50) of 5 nM. This EC50 is about 260-fold lower than that of the compound before.

With `COc1ccc(F)c(-c2ccc(COc3cccc([C@@H](CC(=O)O)C4CC4)c3)cc2CC(C)(C)Cn2cc(CCCCCCCCCCCC(=O)NCCC[N+](C)(CC(=O)[O-])CC(=O)O)nn2)c1` (some centres unmarked) [Example 122], it took 1000 nM to reach a half-maximal effect under setting [1] (EC50).

As a reminder, the EC50 is the concentration needed to bring the measured effect to its halfway point. Read a low EC50 as a more potent agent.
